These results are taken from ChEMBL document CHEMBL1806408, “Design-driven LO: the discovery of new ultra long acting dibasic β2-adrenoceptor agonists” (Bioorg Med Chem Lett, 2011).

One data set has as its target D(2) dopamine receptor (Homo sapiens, UniProt P14416).
The nature of a further data set: physchem. As to conditions: octanol/phosphate buffer, pH 7.4.
Data set [1] addresses T1, Beta-1 adrenergic receptor (Homo sapiens, UniProt P08588).
A short description of data set [2]: Selectivity ratio of IC50 for dopamine 2 receptor over EC50 for human adrenergic beta2 receptor.
Data set [3] has as its target Beta-2 adrenergic receptor (Homo sapiens, UniProt P07550).
Data set [4] concerns the target T1, Beta-1 adrenergic receptor. This is another data set of the same source.
Data set [5] in a line: Selectivity ratio of IC50 for adrenergic beta1 receptor over EC50 for human adrenergic beta2 receptor.
Data set [6] is described as follows: Selectivity ratio of EC50 for human adrenergic beta2 receptor to EC50 for adrenergic beta1 receptor.
Another data set can be described thus: in vivo. As to conditions: rat, plasma, iv.
In data set [7] the test system is Cavia porcellus. Kind of data set: Bronchodilatory activity in intratracheally dosed guinea pig assessed as inhibition of histamine-induced bronchoconstriction. As to conditions: inhaled or nasal.
The nature of data set [8]: Oral bioavailability in rat. The class given is ADME, organism-based. The conditions noted are these: in vivo.
The subject of data set [9] is Cavia porcellus. The data set is described as follows: Bronchodilatory activity in intratracheally dosed guinea pig assessed as inhibition of histamine-induced bronchoconstriction after 24 hrs. Type of data set: functional.

T1 sequence (P08588 whole entry): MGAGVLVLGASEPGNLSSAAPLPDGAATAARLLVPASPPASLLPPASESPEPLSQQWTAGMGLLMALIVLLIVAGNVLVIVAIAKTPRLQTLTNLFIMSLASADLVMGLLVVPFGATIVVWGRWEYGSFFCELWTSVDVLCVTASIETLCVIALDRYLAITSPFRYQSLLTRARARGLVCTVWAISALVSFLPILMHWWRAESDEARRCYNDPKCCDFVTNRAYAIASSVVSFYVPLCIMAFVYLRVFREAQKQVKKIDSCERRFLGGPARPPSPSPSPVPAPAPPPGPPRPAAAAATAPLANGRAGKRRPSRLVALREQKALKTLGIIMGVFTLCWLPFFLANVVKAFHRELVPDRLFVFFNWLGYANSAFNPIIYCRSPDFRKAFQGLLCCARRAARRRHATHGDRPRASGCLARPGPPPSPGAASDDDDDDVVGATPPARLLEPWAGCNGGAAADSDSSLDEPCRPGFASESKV
D(2) dopamine receptor, sequence (P14416 whole entry): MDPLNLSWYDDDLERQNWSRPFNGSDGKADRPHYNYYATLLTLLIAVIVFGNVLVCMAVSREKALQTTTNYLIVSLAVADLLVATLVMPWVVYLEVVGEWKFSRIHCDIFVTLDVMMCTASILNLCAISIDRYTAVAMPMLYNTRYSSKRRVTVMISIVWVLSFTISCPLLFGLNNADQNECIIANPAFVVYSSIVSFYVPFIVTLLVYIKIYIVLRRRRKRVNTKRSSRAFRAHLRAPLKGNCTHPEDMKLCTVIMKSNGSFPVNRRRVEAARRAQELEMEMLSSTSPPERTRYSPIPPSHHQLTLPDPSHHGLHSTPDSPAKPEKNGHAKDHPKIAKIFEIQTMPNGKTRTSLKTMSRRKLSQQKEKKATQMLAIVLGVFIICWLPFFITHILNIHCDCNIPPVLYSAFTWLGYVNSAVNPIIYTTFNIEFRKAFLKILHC
Beta-2 adrenergic receptor, sequence (P07550 whole entry): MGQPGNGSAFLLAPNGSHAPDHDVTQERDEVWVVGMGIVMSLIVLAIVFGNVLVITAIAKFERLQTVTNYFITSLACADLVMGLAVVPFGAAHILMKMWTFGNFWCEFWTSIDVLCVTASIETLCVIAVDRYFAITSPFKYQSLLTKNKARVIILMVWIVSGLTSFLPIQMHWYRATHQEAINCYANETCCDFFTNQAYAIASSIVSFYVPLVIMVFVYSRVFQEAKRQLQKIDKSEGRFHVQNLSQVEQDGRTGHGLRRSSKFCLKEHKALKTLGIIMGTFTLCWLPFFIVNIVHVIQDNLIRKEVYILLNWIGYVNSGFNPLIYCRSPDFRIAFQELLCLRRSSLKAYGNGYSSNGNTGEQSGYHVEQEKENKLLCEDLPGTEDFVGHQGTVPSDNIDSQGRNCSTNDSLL

By IC50 is commonly meant the midpoint of a concentration-inhibition curve. The low end stands for greater potency, the high end for weaker potency. By logD is commonly meant the decadic logarithm of the distribution of all forms, ionised or not, between an organic phase and buffer at a given pH. Compound `O=c1[nH]c2c(O)ccc([C@@H](O)CNCCSCCCOCCc3ccccc3)c2s1` came in with a half-maximal inhibitory concentration (IC50) against D(2) dopamine receptor of more than 1000 nM. The logD in “physchem” came to 2.5.
The EC50 is the concentration giving half of the maximal effect. High values mean a less potent agent, low ones a more potent agent. `CN(CCOCCCNC[C@H](O)c1ccc(O)c2[nH]c(=O)sc12)CCc1ccccc1`: the IC50 is 398 nM in data set [1] and 2510 nM on D(2) dopamine receptor. Moreover, the Ratio IC50/EC50 in data set [2] worked out at 794; in data set [5] it was 150. For the same compound, the EC50 in data set [3] is 2.51 nM; in data set [4] it was 200 nM. The Ratio EC50 in data set [6] was determined as 79.
The compound `O=c1[nH]c2c(O)ccc([C@@H](O)CNCCCSCCNCCc3cccc(Cl)c3)c2s1` had an IC50 on D(2) dopamine receptor of 1580 nM. In addition, in “physchem”, the logD was 1.1.
As usually defined, the half-life is the time in which the quantity being followed falls by half. `O=c1[nH]c2c(O)ccc([C@@H](O)CNCCSCCCNCCc3ccccc3)c2s1`: the logD in the data set “physchem” amounted to 0.1. In addition, the half-life in “in vivo” was 10.8 h.
As to `O=c1[nH]c2c(O)ccc([C@@H](O)CNCCCOCCNCCc3cccc(Cl)c3Cl)c2s1`, the IC50 was 50.1 nM in [1] and 2000 nM at D(2) dopamine receptor. Also, the Ratio IC50/EC50 in data set [2] amounted to 2510; in [5] it was 63. The compound further registered a pH-dependent lipophilicity (logD) in the data set “physchem” of 0.6. Further, the EC50 in data set [4] was 158 nM. Besides, the Ratio EC50 in data set [6] is 178.
Turning to `O=c1[nH]c2c(O)ccc([C@@H](O)CNCCCOCCOCCc3ccccc3)c2s1`, the pH-dependent lipophilicity (logD) in “physchem” is 1.1.
`O=c1[nH]c2c(O)ccc([C@@H](O)CNCCCSCCNCCc3cccc(Cl)c3Cl)c2s1`: the IC50 in data set [1] is 79.4 nM; on D(2) dopamine receptor it was 1000 nM. Moreover, the values for the Ratio IC50/EC50 in data set [2] and in [5] were 562 and 45, respectively. Besides, the values for the EC50 in data set [3] and in [4] were 1.58 nM and 63.1 nM, respectively. Moreover, the logD in the data set “physchem” stood at 1.7. Also, in [6], the Ratio EC50 amounted to 35.
Turning to `O=c1[nH]c2c(O)ccc([C@@H](O)CNCCCSCCCOCCc3ccccc3)c2s1`, the pH-dependent lipophilicity (logD) in “physchem” is more than 2.5. In data set [4], this compound showed an EC50 of 3.98 nM.
On to `O=c1[nH]c2c(O)ccc([C@@H](O)CNCCCSCCOCCc3ccccc3)c2s1`, for which the logD in the data set “physchem” came to 2.3.
For the compound `O=c1[nH]c2c(O)ccc([C@@H](O)CNCCCOCCOCCc3cccc4ccccc34)c2s1`, the pH-dependent lipophilicity (logD) in the data set “physchem” was found to be 2.3.
The compound `O=c1[nH]c2c(O)ccc([C@@H](O)CNCCSCCCNCCc3cccc(Cl)c3Cl)c2s1` gave a half-life in “in vivo” of 10.1 h.
On to `O=c1[nH]c2c(O)ccc([C@@H](O)CNCC[S+]([O-])CCCNCCc3cccc(Cl)c3)c2s1` (some centres undefined), for which the IC50 in data set [1] was 158 nM; against D(2) dopamine receptor, more than 3160 nM. In addition, the Ratio IC50/EC50 was more than 560 in [2] and 26 in data set [5]. Also, the EC50 in [3] was 5.01 nM; in [4], 39.8 nM. In “physchem”, the logD is 0.2. Besides, in data set [6], the Ratio EC50 was determined as 8.
In the case of `O=c1[nH]c2c(O)ccc([C@@H](O)CNCCS(=O)(=O)CCCNCCc3cccc(Cl)c3)c2s1`, the half-maximal inhibitory concentration (IC50) at D(2) dopamine receptor is 794 nM.
`O=c1[nH]c2c(O)ccc([C@@H](O)CNCCCSCCNCCc3ccccc3Cl)c2s1` showed a 50% inhibitory concentration (IC50) on D(2) dopamine receptor of 1000 nM. Also, in data set [4], the concentration for a half-maximal effect (EC50) was 39.8 nM.
Regarding `O=c1[nH]c2c(O)ccc([C@@H](O)CNCCSCCCNCCc3cccc(C(F)(F)F)c3)c2s1`, the logD in “physchem” is 1.2.
In the case of `O=c1[nH]c2c(O)ccc(CCNCCS(=O)(=O)CCCOCCc3ccccc3)c2s1` [SIBENADET], the IC50 is more than 10000 nM in data set [1] and 100 nM at D(2) dopamine receptor. Also, the Ratio IC50/EC50 in data set [2] was 141; in data set [5], more than 14000. The same compound had a concentration giving a half-maximal response (EC50) in [3] of 0.631 nM. In the data set “physchem”, the log distribution coefficient (logD) came to 2.6. The ED80 in the data set with Cavia porcellus [7] amounted to 7 µg/kg.
For the compound `O=c1[nH]c2c(O)ccc([C@@H](O)CNCCOCCCNCCc3cccc(Cl)c3)c2s1`, the logD in the data set “physchem” worked out at 0.8.
`CCOc1ccc(CCNCCCSCCNC[C@H](O)c2ccc(O)c3[nH]c(=O)sc23)cc1` returned a logD in the data set “physchem” of 0.4.
In the data set “physchem”, `O=c1[nH]c2c(O)ccc([C@@H](O)CNCCCSCCOCCc3cccc4ccccc34)c2s1` came in with a pH-dependent lipophilicity (logD) of 3.1. Also, in “in vivo”, the half-life is 3.5 h.
By bioavailability is commonly meant dose-corrected exposure relative to a reference, in per cent. Consider `O=c1[nH]c2c(O)ccc([C@@H](O)CNCCSCCCNCCc3ccccc3Cl)c2s1`, for which, in data set [8], the bioavailability is less than 1%. Further, the logD in the data set “physchem” was determined as 1. The ED80 in the data set on Cavia porcellus [7] came to 7 µg/kg. Besides, the half-life in the data set “in vivo” is 15.9 h. Also, the “inhibition (INH)” value in the data set on Cavia porcellus [9] came out at 49%.
Turning to `OCc1cc(C(O)CNCCCCCCOCCCCc2ccccc2)ccc1O` (centres undefined) [SALMETEROL], the logD in “physchem” was 1.9. The ED80 in the data set with Cavia porcellus [7] is 1 µg/kg. The half-life in the data set “in vivo” is 2.9 h.
On to `O=c1[nH]c2c(O)ccc([C@@H](O)CNCCCOCCNCCc3cccc(Cl)c3)c2s1`, for which the IC50 was 63.1 nM in data set [1] and more than 2510 nM against D(2) dopamine receptor. Moreover, the results for the Ratio IC50/EC50 in data set [2] and in data set [5] were more than 14100 and 45, respectively. The 50% effective concentration (EC50) in [3] was 0.2 nM; in data set [4], 39.8 nM. The same compound yielded a pH-dependent lipophilicity (logD) in “physchem” of 0. Besides, the Ratio EC50 in [6] turned out to be 100.
For `NC(=O)C(c1ccccc1)(c1ccccc1)[C@@H]1CCN(CCc2ccc3c(c2)CCO3)C1` [DARIFENACIN], the Ratio IC50/EC50 in data set [2] amounted to 1860; in [5] it was 21. For the same compound, in the data set with Cavia porcellus [7], the ED80 was found to be 14 µg/kg. Moreover, the half-life in the data set “in vivo” was 7.6 h. For the same compound, in data set [6], the Ratio EC50 was found to be 2.
`CCc1ccc(CCNCCCSCCNC[C@H](O)c2ccc(O)c3[nH]c(=O)sc23)cc1` showed a logD in “physchem” of 0.9.
